Experimental findings from patent US4668679A, “Aminoethyl-pyridine and pyrazine derivatives” (Riom Laboratories C.E.R.M., priority 1983, dated 1987) are described below.

This experiment relates to Bronchospasm. The experiment is described as follows: antibronchoconstrictory activity, technique of Konzett and Rossler (histamine bronchospasm, i.v.). In kind it is in vivo, tricoloured guinea pigs. To be noted: guinea pig; for Duration: duration of action. The protocol:
The antibronchoconstrictory activity was investigated on tricoloured guinea pigs according to the technique of Konzett and Rossler. The animals are anaesthetised with ethylcarbamate and, after tracheotomy, are artifically respirated at constant volume; whereby the intratracheal pressure is recorded continuously. Histamine (5 μg.kg^-1, i.v.) is administered before and at various time-intervals after treatment with the substance to be studied. The activity of the product administered intravenously is evaluated by comparing the amplitudes of the bronchospasms before and after treatment and calculating the percentage variation and the duration of action.

The mark [1] stands for this setting: Cavia porcellus, iv, dose 5 mg, histamine 5 μg/kg i.v.
The mark [2] stands for this setting: dose 5 mg, histamine 5 μg/kg i.v.
The mark [3] stands for this setting: Cavia porcellus, iv, dose 0.05 mg, histamine 5 μg/kg i.v.
Where [4] appears, read: dose 0.05 mg, histamine 5 μg/kg i.v.
Setting [5] is: Cavia porcellus, iv, dose 0.25 mg, histamine 5 μg/kg i.v.
Where [6] appears, read: dose 0.25 mg, histamine 5 μg/kg i.v.
Setting [7] is: Cavia porcellus, iv, dose 0.1 mg, histamine 5 μg/kg i.v.
Setting [8] is: dose 0.1 mg, histamine 5 μg/kg i.v.

As usually defined, the inhibition in vivo is the share of the control response that was lost under treatment. As to `COC(CN1CCCC1)c1ccc(C)nc1` (stereo not drawn) [Compound 1], the inhibition in vivo at 5 mg under setting [1] stood at 56.5%. In addition, the Duration under setting [2] is more than 60 min.
Take `COC(CN1CCN(c2ccc(F)cc2)CC1)c1ccc(C)nc1` (stereo not drawn) [Compound 2]: the inhibition in vivo at 0.05 mg under setting [3] is 85%. Under setting [4], this compound registered a Duration of more than 120 min. Moreover, for the setting “histamine bronchospasm”, the “antibronchoconstrictory activity (intensity and duration of action), in words” value (from here on “antibronchoconstrictory activity”) was “excellent activity”.
For the compound `COC(CN1CCOCC1)c1ccc(C)nc1` (stereo not drawn) [Compound 3], the inhibition in vivo at 5 mg under setting [1] amounted to 50%. The compound further displayed a Duration under setting [2] of more than 15 min.
As usually defined, the ED50 is the dose that gives a 50% effect, or the effect in half of the subjects. Compound `COC(CN1CCN(c2ccccc2)CC1)c1ccc(C)nc1` (stereo not drawn) [Compound 6, 1-[2-Methoxy-2-(6-methyl-3-pyridyl)-ethyl]-4-phenyl-piperazine] yielded an inhibition in vivo at 0.025 mg (Cavia porcellus, iv, dose 0.025 mg, histamine 5 μg/kg i.v.) of 90%. Also, the 50% effective dose (ED50) (Cavia porcellus, iv, histamine bronchospasm) stood at 1.9 µg/kg. Where the note is “dose 0.025 mg, histamine 5 μg/kg i.v.”, this compound displayed a Duration of more than 120 min. Besides, the “antibronchoconstrictory activity” value (histamine bronchospasm) was “excellent activity”.
Under setting [5], `COc1ccccc1N1CCN(CC(OC)c2ccc(C)nc2)CC1` (stereo not drawn) [Compound 7, 1-[2-Methoxy-2-(6-methyl-3-pyridyl)-ethyl]-4-(2-methoxy-phenyl)-piperazine] yielded an inhibition in vivo at 0.25 mg of 97%. Further, the Duration under setting [6] is more than 60 min. Further, for the setting “histamine bronchospasm”, the “antibronchoconstrictory activity” value was “excellent activity”.
For the compound `CCOc1ccccc1N1CCN(CC(OC)c2ccc(C)nc2)CC1` (stereo not drawn) [Compound 8], the inhibition in vivo at 0.1 mg under setting [7] came to 95%. The compound further showed a Duration under setting [8] of more than 15 min. The “antibronchoconstrictory activity” value (histamine bronchospasm) is reported as “excellent activity”.
In turn, `COC(CN1CCN(c2ccccc2)CC1)c1cnc(C)cn1` (stereo not drawn) [Compound 9] had an inhibition in vivo at 0.25 mg under setting [5] of 98%. The compound further came in with a Duration under setting [6] of 30 min.
In turn, `CCOC(CN1CCN(c2ccccc2)CC1)c1ccc(C)nc1` (stereo not drawn) [Compound 10] displayed an inhibition in vivo at 1 mg (Cavia porcellus, iv, dose 1 mg, histamine 5 μg/kg i.v.) of 100%. Moreover, the Duration (dose 1 mg, histamine 5 μg/kg i.v.) was more than 60 min.
`CCOC(CN1CCN(c2ccccc2OC)CC1)c1ccc(C)nc1` (stereo not drawn) [Compound 11] registered an inhibition in vivo at 0.25 mg under setting [5] of 100%. The compound also came in with a Duration under setting [6] of more than 60 min.
As for `COC(CN1CCN(c2ccc(F)cc2)CC1)c1cnc(C)cn1` (stereo not drawn) [Compound 12], the inhibition in vivo at 0.5 mg (Cavia porcellus, iv, dose 0.5 mg, histamine 5 μg/kg i.v.) was found to be 91%. Also, for the setting “dose 0.5 mg, histamine 5 μg/kg i.v.”, the Duration was more than 60 min.
As to `COC(CN1CCN(c2ccccc2)CC1)c1nccnc1C.O=C(O)/C=C/C(=O)O` (stereo not drawn) [Compound 14, 1-[2-Methoxy-2-(3-methyl-2-pyrazinyl)-ethyl]-4-phenyl-piperazine fumarate salt], under setting [1], the inhibition in vivo at 5 mg is 82%. Under setting [2], the Duration came to 45 min.
`COc1ccc(N2CCN(CC(OC)c3ccc(C)nc3)CC2)c(OC)c1` (stereo not drawn) [Compound 15] yielded an inhibition in vivo at 0.05 mg under setting [3] of 80%. The same compound yielded a Duration under setting [4] of 60 min. Moreover, the “antibronchoconstrictory activity” value (histamine bronchospasm) was “excellent activity”.
Take `COC(CN1CCN(c2ccccc2C)CC1)c1ccc(C)nc1` (stereo not drawn) [Compound 16]: the inhibition in vivo at 0.1 mg under setting [7] turned out to be 79%. This compound also had a Duration under setting [8] of 45 min. For the setting “histamine bronchospasm”, the “antibronchoconstrictory activity” value is given as “excellent activity”.
